The target of this test is Serine/threonine-protein kinase pim-1 (Homo sapiens, UniProt P11309). Nature of the test: Biological Assay: Determination of the Pim kinase activity of a Formula I compound is possible by a number of direct and indirect detection methods. Certain exemplary compounds described herein were assayed for their Pim kinase binding activity, including isoforms Pim-1, Pim-2, andPim-3, (Example 901) and in vitro activity against tumor cells (Example 902). The format is cell-based.
Serine/threonine-protein kinase pim-1, sequence (P11309 whole entry, canonical isoform): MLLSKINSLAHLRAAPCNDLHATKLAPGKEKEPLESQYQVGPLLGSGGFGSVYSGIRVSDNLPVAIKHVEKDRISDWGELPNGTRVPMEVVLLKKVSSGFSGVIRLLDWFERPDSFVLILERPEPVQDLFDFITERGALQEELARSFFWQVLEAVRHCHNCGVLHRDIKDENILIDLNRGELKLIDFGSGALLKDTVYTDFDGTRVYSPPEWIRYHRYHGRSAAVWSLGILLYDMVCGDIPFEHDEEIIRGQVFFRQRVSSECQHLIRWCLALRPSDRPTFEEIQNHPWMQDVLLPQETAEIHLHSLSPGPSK

What is called Ki is the equilibrium dissociation constant of an inhibitor or competing ligand from its target. In turn, `N[C@@H]1CC[C@@H](c2c(NC(=O)c3csc(-c4c(F)cccc4F)n3)cnn2CC(F)F)OC[C@H]1F` registered an inhibition constant (Ki) of 0.047 nM.

The values above are taken from ChEMBL document CHEMBL5727021, “Oxepan-2-yl-pyrazol-4-yl-heterocyclyl-carboxamide compounds and methods of use” (2018).
